Laboratory results: patent publication US7820817B2, “Modulators of muscarinic receptors” (Vertex Pharmaceuticals Incorporated, priority 2004, dated 2010)

What follows are compounds tested on at least one muscarinic receptor, M1, M2, M3, M4 (assay: Muscarinic modulation activity (Table 3)). Conditions: concentration at which modulation of at least one muscarinic receptor, M1, M2, M3, M4, was exhibited; CHO cells.
Assay type: cell-based
Set-up: key: +++: exhibited muscarinic modulation activity for at least one muscarinic receptor, M1, M2, M3, M4, at a concentration of less than 5 μM; ++: exhibited muscarinic modulation activity for at least one muscarinic receptor, M1, M2, M3, M4, at a concentration of between 30 μM and 5 μM; +: exhibited muscarinic modulation activity for at least one muscarinic receptor, M1, M2, M3, M4, at a concentration of greater than 30 μM; −: were not assayed or did not exhibit muscarinic modulation activity for at least one muscarinic receptor, M1, M2, M3, M4, at the concentration at which the assay was performed
Protocol: CHO cells expressing muscarinic receptors (M1 to M5) are grown as monolayers in tissue culture flasks at 37° C. in a humidified atmosphere containing 5% CO2 and passaged every 3-5 days. The growth media is Dulbecco's modified eagles medium (DMEM, Gibco Cat#12430-054), containing 25 mM Hepes and supplemented with Fetal Bovine Serum (Hyclone, cat#SH30071.03), 0.1 mM of MEM non-essential amino acids (GIBCO, Cat#11140-050), 1 mM MEM Sodium Pyruvate (GIBCO Cat#11360-070) and 100 units/ml of Penicillin G and 100 μg/ml of Streptomycin (GIBCO Cat#15140-122). The recombinant muscarinic receptor cell lines are grown under antibiotic pressure with media containing 25 μg/ml zeocin and 500 μg/ml G418 (M1-CHO), 4 μg/ml puromycin, 50 μg/ml zeocin and 2.5 μg/ml blasticidin (M2 and M4-CHO) or 50 μg/ml zeocin and 4 μg/ml puromycin (M3 and M5-CHO).
Cells are harvested at 80-90% confluence using Versene (GIBCO Cat#15040-066), collected by centrifugation and seeded 18-24 hrs prior to running the calcium assay at a density of 5,000-10,000 cells/well in […], clear-bottomed 384-well plates (BD Biocoat, poly-D-lysine, Cat#356663). The day of the experiment, the cells are washed with a plate washer (Bioteck Instruments, ELX 405) using bath1 buffer (140-mM NaCl, 4.5-mM KCl, 2-mM CaCl2, 1-mM MgCl2, 10-mM Hepes-Na, 10-mM Glucose, pH 7.4, with NaOH) containing 1 mM Probenecid. Next, the calcium dye Fluo-3 (25 μl/well of Fluo-3 AM at 4 μM, Molecular Probes F-1241, in Bath 1 buffer containing 1 mM Probenecid) is added to the 25 μl of Bath 1 remaining in each well after the plate wash and the dye is loaded at 37° C. in the tissue culture incubator for 60-90 min. The fluorescent dye is removed using the plate washer with Bath 1 containing 1 mM Probenecid, leaving 25 μl/well of this solution after the wash. Alternatively, cells can be loaded with the calcium indicator from Molecular Devices (Calcium 3 Assay Reagents, Cat #R7181) adding 5 μl of a 5× solution dye in Bath 1 containing 1 mM Probenecid (10 ml per dye flask cat#R7182 to generate a solution […]) to 20 μl of the same buffer. After loading for 60 min. the experiment can be run without having to remove the dye.
Compounds are prepared at a 2× fold concentration in a 96-well plate (round bottom, Costar Corning cat#3656), by reconstituting the pre-spotted compounds in bath 1 containing 1 mM probenecid. The final concentration DMSO is 0.5%, and the amount of DMSO is normalized across the assay plate. To determine an agonist action of the compounds on muscarinic receptors, the reconstituted compounds are added (25 μl compound/well) to the cell assay plate (containing 25 μl/well) using the multi-channel robotic system of the FLIPR 3 Instrument (Molecular Devices, Sunnyvale, Calif.). To determine a functional inhibitory action of the compounds on muscarinic receptors, the reconstituted compounds are added (25 μl compound/well) to the assay plate and pre-incubated for 15 min prior to adding 25 μl of Carbachol at 3× the EC80 for each muscarinic subtype. Alternatively, the compounds can be co-applied simultaneously with the agonist. In both assay modes, the fluorescence is recorded for 60 sec (excitation wavelength is […] and emission wavelength 540 nm) using the FLIPR 3 instrument.
The potency, efficacy and selectivity of the muscarinic compounds were evaluated by screening the compound activity across the whole family (M1 to M5 cells).
CHO cells expressing muscarinic receptors (M1 to M5) and containing a gene reporter system β-Lactamase) with transcriptional control mediated by calcium release (NFAT activation). See Zlokarnik, G; Negulescu, P. A.; Knapp, T. E.; Mere, L; Burres, N; Feng, L; Whitney, M; Roemer, K; Tsien, R. Y. Quantitation of transcription and clonal selection of single living cells with β-lactamase as reporter. Science, 1998 Jan. 2, 279(5347):84-8. The cells are grown as monolayers in tissue culture flasks at 37° C. in a humidified atmosphere containing 5% CO2 and passaged every 3-5 days. […]

| SMILES | ACTIVITY (muscarinic modulation activity) |
| --- | --- |
| N#Cc1ccc(N2CCN(C3CC4CCC3C4)CC2)nc1 (centres unmarked) [Compound 19, 6-(4-norbornan-2-ylpiperazin-1-yl)nicotinonitrile] | ++ (exhibited muscarinic modulation activity for at least one muscarinic receptor, M1, M2, M3, M4, at a concentration of between 30 μM and 5 μM) |
| Cc1ccc(C#N)c(N2CCN(CC3CC4C=CC3C4)CC2)n1 (centres unmarked) [Compound 62, 2-[4-(5-bicyclo[2.2.1]hept-2-enylmethyl)piperazin-1-yl]-6-methyl-nicotinonitrile] | +++ (exhibited muscarinic modulation activity for at least one muscarinic receptor, M1, M2, M3, M4, at a concentration of less than 5 μM) |
| c1cc(N2CCN(C3CCC4CCC3C4)CC2)ccn1 (centres unmarked) [Compound 61, 1-(2-bicyclo[3.2.1]octyl)-4-(4-pyridyl)piperazine] | − |
| CCOC(=O)N1C2CCC1CC(N1CCN(c3ncc(-c4ccccc4)cc3C#N)CC1)C2 (centres unmarked) [Compound 33, 3-[4-(3-cyano-5-phenyl-2-pyridyl)piperazin-1-yl]-8-azabicyclo[3.2.1]octane-8-carboxylic acid ethyl ester] | + (exhibited muscarinic modulation activity for at least one muscarinic receptor, M1, M2, M3, M4, at a concentration of greater than 30 μM) |
| CCOC(=O)N1C2CCC1CC(N1CCC(n3nnc4ccccc43)CC1)C2 (centres unmarked) [Compound 29, 3-[4-(1H-benzotriazol-1-yl)-1-piperidyl]-8-azabicyclo[3.2.1]octane-8-carboxylic acid ethyl ester] | +++ (exhibited muscarinic modulation activity for at least one muscarinic receptor, M1, M2, M3, M4, at a concentration of less than 5 μM) |
| O=[N+]([O-])c1cccnc1N1CCN(CC2CC3C=CC2C3)CC1 (centres unmarked) [Compound 1, 1-(5-bicyclo[2.2.1]hept-2-enylmethyl)-4-(3-nitro-2-pyridyl)-piperazine] | ++ (exhibited muscarinic modulation activity for at least one muscarinic receptor, M1, M2, M3, M4, at a concentration of between 30 μM and 5 μM) |
| N#Cc1nccnc1N1CCN(C2CC3CCC2C3)CC1 (centres unmarked) [Compound 43, 3-(4-norbornan-2-ylpiperazin-1-yl)pyrazine-2-carbonitrile] | − |
| N#Cc1ccc(C(F)(F)F)nc1N1CCN(CC2CC3CCC2C3)CC1 (centres unmarked) [Compound 8, 2-[4-(norbornan-2-ylmethyl)piperazin-1-yl]-6-(trifluoromethyl)nicotinonitrile] | − |
| CCOC(=O)N1C2CCC1CC(N1CCN(c3nc(C)cc(C)c3C#N)CC1)C2 (centres unmarked) [Compound 78, 3-[4-(3-cyano-4,6-dimethyl-2-pyridyl)piperazin-1-yl]-8-azabicyclo[3.2.1]octane-8-carboxylic acid ethyl ester] | ++ (exhibited muscarinic modulation activity for at least one muscarinic receptor, M1, M2, M3, M4, at a concentration of between 30 μM and 5 μM) |
| Cc1cccc(N2CCN(C3CC4CCC3C4)CC2)n1 (centres unmarked) [Compound 77, 1-(6-methyl-2-pyridyl)-4-norbornan-2-yl-piperazine] | − |
| N#Cc1cccnc1N1CCN(CC2CCC3CCC2C3)CC1 (centres unmarked) [Compound 64, 2-[4-(4-bicyclo[3.2.1]octylmethyl)piperazin-1-yl]nicotinonitrile] | + (exhibited muscarinic modulation activity for at least one muscarinic receptor, M1, M2, M3, M4, at a concentration of greater than 30 μM) |
| CCOC(=O)N1C2CCC1CC(N1CCN(c3ccncc3S(N)(=O)=O)CC1)C2 (centres unmarked) [Compound 49, 3-[4-(3-sulfamoyl-4-pyridyl)piperazin-1-yl]-8-azabicyclo[3.2.1]octane-8-carboxylic acid ethyl ester] | +++ (exhibited muscarinic modulation activity for at least one muscarinic receptor, M1, M2, M3, M4, at a concentration of less than 5 μM) |
| FC(F)(F)c1cnc(N2CCN(CC3CC4C=CC3C4)CC2)c(Cl)c1 (centres unmarked) [Compound 74, 1-(5-bicyclo[2.2.1]hept-2-enylmethyl)-4-[3-chloro-5-(trifluoromethyl)-2-pyridyl]-piperazine] | − |
| COc1cc(OC)nc(C2CCN(CC3CC4C=CC3C4)CC2)n1 (centres unmarked) [Compound 4, 2-[1-(5-bicyclo[2.2.1]hept-2-enylmethyl)-4-piperidyl]-4,6-dimethoxy-pyrimidine] | +++ (exhibited muscarinic modulation activity for at least one muscarinic receptor, M1, M2, M3, M4, at a concentration of less than 5 μM) |
| N#Cc1cccnc1C1CCN(CC2CC3C=CC2C3)CC1 (centres unmarked) [Compound 54, 2-[1-(5-bicyclo[2.2.1]hept-2-enylmethyl)-4-piperidyl]nicotinonitrile] | +++ (exhibited muscarinic modulation activity for at least one muscarinic receptor, M1, M2, M3, M4, at a concentration of less than 5 μM) |
| c1ccc2c(c1)nnn2C1CCN(C2CC3CCC2C3)CC1 (centres unmarked) [Compound 50, 1-(1-norbornan-2-yl-4-piperidyl)-1H-benzotriazole] | ++ (exhibited muscarinic modulation activity for at least one muscarinic receptor, M1, M2, M3, M4, at a concentration of between 30 μM and 5 μM) |
| N#Cc1nccnc1N1CCN(CC2CCC3CCC2C3)CC1 (centres unmarked) [Compound 23, 3-[4-(4-bicyclo[3.2.1]octylmethyl)piperazin-1-yl]pyrazine-2-carbonitrile] | − |
| N#Cc1cc(-c2ccccc2)cnc1N1CCN(CC2CC3CCC2C3)CC1 (centres unmarked) [Compound 46, 2-[4-(norbornan-2-ylmethyl)piperazin-1-yl]-5-phenyl-nicotinonitrile] | ++ (exhibited muscarinic modulation activity for at least one muscarinic receptor, M1, M2, M3, M4, at a concentration of between 30 μM and 5 μM) |
| N#Cc1ccc(N2CCN(CC3CC4C=CC3C4)CC2)nc1 (centres unmarked) [Compound 13, 6-[4-(5-bicyclo[2.2.1]hept-2-enylmethyl)piperazin-1-yl]nicotinonitrile] | +++ (exhibited muscarinic modulation activity for at least one muscarinic receptor, M1, M2, M3, M4, at a concentration of less than 5 μM) |
| CCOC(=O)N1C2CCC1CC(N1CCN(c3nc(Cl)cc(C(F)(F)F)c3C#N)CC1)C2 (centres unmarked) [Compound 58, 3-[4-[6-chloro-3-cyano-4-(trifluoromethyl)-2-pyridyl]piperazin-1-yl]-8-azabicyclo[3.2.1]octane-8-carboxylic acid ethyl ester] | − |
